Values quoted from earlier work in patent US20160175250A1, “Method for Making Liposomes Containing an Active Pharmaceutical Ingredient” (Tolmar Inc., priority 2014, published 2016).

Conditions: patients receiving doses greater than 550 mg per square meter of body area

COc1cccc2c1C(=O)c1c(O)c3c(c(O)c1C2=O)C[C@@](O)(C(=O)CO)C[C@@H]3O[C@H]1C[C@H](N)[C@H](O)[C@H](C)O1 [doxorubicin, Doxorubicin]
congestive heart failure from cumulative dose dependent irreversible cardiomyopathy, share of patients: 1-10%
